{"source": "ChEMBL document CHEMBL1157539", "about": "“Thousands of chemical starting points for antimalarial lead identification” (Nature, 2010)", "data": [{"test_system": "Plasmodium falciparum", "experiment": "GSK_TCMDC: Inhibition of Plasmodium falciparum 3D7 in whole erythrocytes, using parasite LDH activity as an index of growth.", "type": "functional, organism-based", "settings": "Plasmodium falciparum, 3D7", "units": {"XC50": "nM"}, "values": [{"smiles": "Cc1cc(N/N=C/c2cccc([N+](=O)[O-])c2)c2ccc(F)cc2n1", "XC50": 690}, {"smiles": "Cc1nc(O)c2c(ccc3ccc(CN(C)c4ccc(C(=O)N[C@@H](CCC(=O)O)C(=O)O)cc4)cc32)n1", "XC50": 879}, {"smiles": "O=C(O)c1ccc(-c2c[nH]c3ncc(-c4ccc(Cl)cc4)cc23)cc1", "XC50": 726}, {"smiles": "Cc1ccc(Nc2nccc(N(C)c3ccc4c(c3)nc(NC(=O)Cc3ccc(Cl)c(Cl)c3)n4C)n2)cc1S(N)(=O)=O", "XC50": 1110}, {"smiles": "O=c1cc(NC[C@H]2CCC[C@@H]2NC2CCCc3c2[nH]c2ccccc32)[nH]c2ccccc12", "note": "(some centres undefined)", "XC50": 786}, {"smiles": "CC(C)(C)c1ccc(OCC(=O)NC2CCN(c3ccnc4cc(Cl)ccc34)C2)cc1", "note": "(centres undefined)", "XC50": 135}, {"smiles": "CC1(C)N=C(NC(=O)c2cc([N+](=O)[O-])cc([N+](=O)[O-])c2)N=C(N)N1OCc1cccc2ccccc12", "XC50": 6.84}, {"smiles": "COc1ccc(-c2nc3cccnc3n2CC(=O)Nc2c(C)cc(C)cc2C)c(OC)c1", "XC50": 927}, {"smiles": "COc1ccccc1C1CC(c2ccc(Br)cc2)=NN1C(=O)c1ccccc1", "note": "(centres undefined)", "XC50": 1110}, {"smiles": "COc1cc(C)nc2ccc(NC(=O)c3cc(C(F)(F)F)cc(C(F)(F)F)c3)cc12", "XC50": 912}, {"smiles": "Cc1cc(C(=O)Nc2ccc3c(c2)CCN3C2CCN(Cc3cccc(F)c3F)C2)no1", "note": "(centres undefined)", "XC50": 583}, {"smiles": "CSc1ccc(CN2CCC(NC(=O)c3ccc(-c4cccc(Cl)c4)s3)CC2)cc1", "XC50": 1290}, {"smiles": "Cn1nc(-c2ccccc2F)c2cc(C(=O)NC3CCN(Cc4ccccc4)CC3)sc21", "XC50": 789}, {"smiles": "O=S(=O)(Nc1cccc(CCN2CCCCC2CCN2CCCC2)c1)c1cccc2ccccc12", "note": "(centres undefined)", "XC50": 819}, {"smiles": "CC(=O)Nc1cccc(C(=O)Nc2cccc(-c3ccc(-c4nc5cc(C(F)(F)F)ccc5[nH]4)s3)c2)c1", "XC50": 652}, {"smiles": "CC1(C)CCC(=Cc2ccc(Cl)cc2)CC1(O)Cn1ccnc1", "note": "(centres undefined)", "XC50": 743}, {"smiles": "Cc1cccc2nc(-c3cccc(-c4ccc(CNCc5ccccc5)cc4)c3)[nH]c12", "XC50": 148}, {"smiles": "COc1cc(Cc2cnc(N)nc2N)cc(OCCCCc2nnn[nH]2)c1OC", "XC50": 286}, {"smiles": "CCCCCCCCCC(=O)NCC1CC(Br)=NO1", "note": "(centres undefined)", "XC50": 1050}, {"smiles": "CCCCCCn1c2c(c(=N)c3c1CCC3)CCC2", "XC50": 178}, {"smiles": "C=CCOc1ccc(C2C(C(=O)OC)=C(C)NC3=C2C(=O)c2ccccc23)cc1OC", "note": "(centres undefined)", "XC50": 877}, {"smiles": "O=C(Nc1ccc(-c2cccc(-c3nc4cc(C(F)(F)F)ccc4[nH]3)c2)cc1)Nc1ccc(Cl)c(Cl)c1", "XC50": 746}, {"smiles": "CN(Cc1cccc(O)c1)C1CCN(c2cc(NC(=O)c3cccc(F)c3)ccn2)CC1", "XC50": 847}, {"smiles": "CC1(C)NC(N)=NC(=N)N1OCc1cccc(Cl)c1Cl", "XC50": 3.2}, {"smiles": "COc1ccc(NC(=O)Nc2ccc(C)c(-c3ccc(C(=O)Nc4ccncc4)cc3)c2)cc1", "XC50": 572}, {"smiles": "Cc1cccc2nc(-c3cccc(-c4cccc(NC(=O)Nc5ccc(F)c(F)c5F)c4)c3)[nH]c12", "XC50": 108}, {"smiles": "COc1ccc(NC(=O)Nc2ccc(-c3ccc(-c4nc5ccccc5[nH]4)cc3)cc2)cc1", "XC50": 509}, {"smiles": "Cc1cc(NC(=O)NCCN2CCC(NS(=O)(=O)c3ccc(Br)cc3)C2)c2ccccc2n1", "note": "(centres undefined)", "XC50": 602}, {"smiles": "CCCCCn1c(Sc2ccc(C#N)c([N+](=O)[O-])c2)nnc1-c1ccc(OC)cc1", "XC50": 1140}, {"smiles": "COc1ccc(CNCc2ccccc2)cc1-c1ccc(OC)c(S(=O)(=O)NCCN2CCCC2)c1", "XC50": 827}, {"smiles": "CCC(C)NS(=O)(=O)c1ccc2nc(Nc3ccc(C)c(Cl)c3)n([C@H](C)C(C)(C)C)c2c1", "note": "(some centres undefined)", "XC50": 381}, {"smiles": "O=C(/C=C/c1ccc(Cl)c(Cl)c1)N1CCC(CN2CCC(Cc3nc4ccccc4[nH]3)CC2)CC1", "XC50": 254}, {"smiles": "CCc1c(CCNCCCCCCNC(C)(C)Cc2ccc3c(c2CC)OCO3)ccc(OC)c1OC", "XC50": 934}, {"smiles": "Cc1ccc(NCC(=O)Nc2ccc(F)c(Cl)c2)cc1S(=O)(=O)N1CCOCC1", "XC50": 57.6}, {"smiles": "CN(Cc1cccc(F)c1)C1CCN(c2cc(NC(=O)c3cccc(F)c3)ccn2)CC1", "XC50": 1160}, {"smiles": "COc1ccc(NC(=O)c2ccc(-c3nc(-c4ccc(Cl)cc4)cs3)cc2)cc1N1CCN(C)CC1", "XC50": 921}, {"smiles": "CCc1ccc(CN2CCC(NC(=O)c3ccc(-c4ccc(N(C)C)cc4)s3)CC2)cc1", "XC50": 1210}, {"smiles": "CC(NC(C)c1cccc(Cl)c1)C(=O)Nc1cc(C(F)(F)F)ccc1N1CCOCC1", "note": "(centres undefined)", "XC50": 1090}, {"smiles": "CN(C)c1cccc2c(S(=O)(=O)Nc3cccc(CCN4CCC(N5CCCCC5)CC4)c3)cccc12", "XC50": 979}, {"smiles": "CC[C@H](N/C(=N\\c1ccc(-c2ccccc2)cc1)Nc1ccc(C#N)cc1O)c1ccccc1", "XC50": 759}, {"smiles": "O=C(/C=C/c1ccc(Cl)c(Cl)c1)NCCCCCN1CCC(NC(=S)Nc2ccc(Cl)c(Cl)c2)CC1", "XC50": 528}, {"smiles": "COc1cc(OC)c(OC)cc1C=NN=c1cc(C)[nH]c2ccccc12", "XC50": 299}, {"smiles": "COc1cc2c(cc1COc1ccccc1)CCN1Cc3cc(OC)c(OC)cc3CC21", "note": "(centres undefined)", "XC50": 150}, {"smiles": "Cc1[nH]c(C)c(-c2ccc(OCc3ccccc3C(F)(F)F)nc2)c(=O)c1Br", "XC50": 16.4}, {"smiles": "CCCCNC(c1ccc(Cl)cc1)C(O)c1ccc(Cl)cc1", "note": "(centres undefined)", "XC50": 619}, {"smiles": "N#Cc1ccc(C(=O)Nc2cc(-c3cccc(O)c3)cc3[nH]ncc23)cc1", "XC50": 1370}, {"smiles": "CCCCCCCC1=NN2C(=N)C(=Cc3cc(Br)c(OCc4ccc(F)cc4)c(OCC)c3)C(=O)N=C2S1", "XC50": 1050}, {"smiles": "O=C(Nc1cc(F)cc(F)c1)NC1CCN(CCCCCNC(=O)C2CC2c2ccc(Cl)c(Cl)c2)CC1", "note": "(centres undefined)", "XC50": 750}, {"smiles": "O=C(NCCCCN1CCN(c2cccc3ccccc23)CC1)c1ccc(NC(=O)c2ccc(Cl)cc2)cc1", "XC50": 358}, {"smiles": "Oc1cc(-c2cccc(C(F)(F)F)c2)nc(Nc2ccc(Cl)c(Cl)c2)n1", "XC50": 759}, {"smiles": "CS(=O)(=O)Nc1ccc(-c2cnc3[nH]cc(-c4ccc(C(=O)O)cc4)c3c2)cc1", "XC50": 800}, {"smiles": "CCN(CCO)Cc1ccc(-c2ccc(NS(=O)(=O)c3cccc4cccnc34)cc2)cc1", "XC50": 985}, {"smiles": "COc1c(C=NNc2nc(=Nc3ccccc3)[nH]c(=Nc3ccccc3)[nH]2)ccc(Br)c1O", "XC50": 720}, {"smiles": "CC(C)(CNCc1cccc(Oc2cccc(C(F)(F)F)c2)c1)c1nc(-c2ccnc(N)n2)c(-c2ccc(Cl)c(O)c2)[nH]1", "XC50": 193}, {"smiles": "CSCCCN1CCC(O)(c2ccc3oc(C(=O)Nc4ccc5sc(C)nc5c4)cc3c2)CC1", "XC50": 1070}, {"smiles": "O=C(Nc1cccc(CN2CCCN(Cc3ccsc3)CC2)c1)c1cc2ccccc2s1", "XC50": 758}, {"smiles": "COc1cccc(NC(=O)c2cc([N+](=O)[O-])ccc2NC(=O)CN2CCc3ccccc3C2)c1", "XC50": 589}, {"smiles": "Cc1cc(N2CCCCC2)nc2ccc(NC(=O)c3cccc([N+](=O)[O-])c3)cc12", "XC50": 378}, {"smiles": "CNc1ccc(CNCc2ccc(-c3ccc(-c4nc5cc(C(F)(F)F)ccc5[nH]4)s3)cc2)cc1", "XC50": 177}, {"smiles": "O=S(=O)(c1c(Cl)cccc1Cl)N1CCCCC(c2ccc(C(F)(F)F)cc2)=N1", "XC50": 126}, {"smiles": "CN1CC[C@@H](Oc2cc(Nc3nc(-c4ccc(C#N)cc4)cs3)ccc2Cl)C1", "XC50": 821}, {"smiles": "COc1ccccc1NC(=O)Nc1cccc(-c2cccc(-c3nc4cc(C(F)(F)F)ccc4[nH]3)c2)c1", "XC50": 120}, {"smiles": "C=CCN(C(=O)c1ccc(Cl)c([N+](=O)[O-])c1)c1nc(-c2ccccc2)cs1", "XC50": 398}, {"smiles": "CN(C)Cc1cccc(-c2cnc(N)c(-c3nc4cc(S(C)(=O)=O)ccc4[nH]3)c2)c1", "XC50": 887}, {"smiles": "FC(F)(F)c1ccc2[nH]c(-c3ccc(-c4ccc(CN5CCN(c6ccncc6)CC5)cc4)s3)nc2c1", "XC50": 153}, {"smiles": "CN(C(=O)Cc1ccc(Cl)c(Cl)c1)C1CCN(CCCCCNC(=O)/C=C/c2ccc(Cl)c(Cl)c2)CC1", "XC50": 739}, {"smiles": "COc1cccc(N(CCCN2C(=O)c3cccc4cccc(c34)C2=O)C(=O)c2ccccc2C)c1", "XC50": 795}, {"smiles": "CC[C@H]1CN2CC[C@@H]1C[C@H]2[C@H](O)c1cc(N2CCC(C(N)=O)CC2)nc2ccc(OC)cc12", "XC50": 773}, {"smiles": "COc1cc(Cc2cnc(N)nc2N)cc(OCCCN2C(=O)c3ccccc3C2=O)c1OC", "XC50": 985}, {"smiles": "O=C(NC1CCC(CCN2Cc3cccc(F)c3C2)CC1)c1cccc(-c2cccnc2)c1", "note": "(centres undefined)", "XC50": 300}, {"smiles": "O=C(CCC1CCCC1)N(Cc1ccc(-c2ccc(CNCCc3ccccn3)cc2)cc1)CC1CCCCN1", "note": "(centres undefined)", "XC50": 1150}, {"smiles": "CC1CN(Cc2cccc(F)c2)CCN1c1ccc(NC(=O)c2cccs2)cc1", "note": "(centres undefined)", "XC50": 448}, {"smiles": "CC(=O)Nc1ccc([N+](=O)[O-])c2c(Br)cccc12", "XC50": 636}, {"smiles": "O=C(NCc1ccco1)c1ccc(S(=O)(=O)c2ccc(Cl)cc2)cc1", "XC50": 448}, {"smiles": "O=C(Nc1ccc(Oc2ccccc2)cc1)N[C@@H](Cc1ccc(O)cc1)C(=O)NC1CCN(Cc2ccc(O)c([N+](=O)[O-])c2)C1", "note": "(some centres undefined)", "XC50": 1510}, {"smiles": "CCC[C@@H]([C@@H](CC1CCCCC1)C(=O)N[C@H](C(=O)Nc1nccc(N)n1)C(C)(C)C)N(O)C=O", "XC50": 528}, {"smiles": "c1cncc(-c2cccc(CNc3nccc(Nc4ccc(OCCN5CCOCC5)cc4)n3)c2)c1", "XC50": 1060}, {"smiles": "CN(C)c1ccc(-c2nc3cc(N)ccc3[nH]2)cc1", "XC50": 239}, {"smiles": "Cc1sc(C)c(CNCCCNc2cc(=O)c3ccccc3[nH]2)c1Br", "XC50": 878}, {"smiles": "O=C(C=Cc1ccc(Cl)c(Cl)c1)NCCCCCN1CCCC(CCCNS(=O)(=O)c2cccc(C(F)(F)F)c2)C1", "note": "(centres undefined)", "XC50": 962}, {"smiles": "COc1cc(NC(=O)C(c2ccc(Cl)cc2)C(C)C)cc(OC)c1", "note": "(centres undefined)", "XC50": 723}, {"smiles": "COc1ccccc1C(C)NCC(=O)Nc1cc(C(F)(F)F)ccc1Cl", "note": "(centres undefined)", "XC50": 778}, {"smiles": "CC[C@H]1CN2CC[C@H]1C[C@H]2[C@H](O)c1cc(N2CCC3CCCCC3C2)nc2ccc(OC)cc12", "note": "(some centres undefined)", "XC50": 170}, {"smiles": "COc1cc(-c2nc(-c3ccccc3)c(-c3ccccc3)[nH]2)cc(OC)c1O", "XC50": 774}, {"smiles": "CCCCCCn1c(Sc2ccc(C#N)c([N+](=O)[O-])c2)nnc1-c1cc(OC)cc(OC)c1", "XC50": 771}, {"smiles": "Cc1ccc(-c2nnc(-c3ccc(C(=O)NC4CCN(Cc5ccc(C#N)cc5)CC4)cc3)o2)cc1Br", "XC50": 852}, {"smiles": "Cn1cnc2nc(NCCc3ccccc3)nc(NCc3cccc4ccccc34)c21", "XC50": 327}, {"smiles": "CN(C)CCN(C)Cc1ccc(-c2cccc(-c3nc4ccccc4[nH]3)c2)cc1", "XC50": 751}, {"smiles": "Cc1ccc(CNC(=O)c2cc3c(=O)n4cccc(C)c4nc3n(CCN3CCOCC3)c2=N)cc1", "XC50": 854}, {"smiles": "CN1CCN(Cc2ccc(-c3cc4c(Nc5ccc(OCc6cccc(F)c6)c(Cl)c5)ncnc4s3)[nH]2)CC1", "XC50": 766}, {"smiles": "CNC(=O)NC1=NC(C)(C)N(OCc2ccc(Cl)c(Cl)c2)C(NC(=O)NC)=N1", "XC50": 601}, {"smiles": "CN1CCC(c2ccc(NC(=O)c3ccc(-c4cccc(C(F)(F)F)c4)o3)cc2)CC1", "XC50": 1130}, {"smiles": "COc1ccc(C2C(C(=O)Nc3ccccc3)=C(C)Nc3c(C(=O)Nc4ccccc4)cnn32)cc1", "note": "(centres undefined)", "XC50": 1310}, {"smiles": "Cc1sc(NC(=O)Cc2cccc(C(F)(F)F)c2)nc1-c1cccc(Cl)c1", "XC50": 470}]}]}
